Laboratory results from patent publication US20150223463A1, “SPIROCYCLIC ISOXAZOLINE DERIVATIVES FOR TREATMENT OF SEA LICE” (Zoetis LLC, priority 2012, published 2015).

Tested on: Lepeophtheirus salmonis (sea lice)
Experiment: Sea lice bioassay, 24 hours exposure to test compound
Type: in vivo
Conditions: predominantly pre-adult and adult stage, generally chemical resistant strain

## Emamectin
Adult female sea lice
  Adult Females (EC50): 65 ppb
Adult male sea lice
  Adult Males (EC50): 202 ppb
